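Where inhibition never reached the appropriate level, the endpoint shown equals the highest concentration tested. Otherwise, values were interpolated linearly from a five-concentration, 48-hour dose response in 96-well plates. At the GI50, growth is halved. TGI marks complete inhibition of growth.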
Key:
Assay in all cases: DTP human tumour cell line panel, 48 h
[1] = system: 786-0 renal
[2] = system: A549 NSCLC
[3] = system: ACHN renal
[4] = system: BT-549 breast
[5] = system: CAKI-1 renal
[6] = system: CCRF-CEM leukemia
[7] = system: COLO 205 colon
[8] = system: DU-145 prostate
[9] = system: HCC-2998 colon
[10] = system: HCT-116 colon
[11] = system: HCT-15 colon
[12] = system: HL-60(TB) leukemia
[13] = system: HOP-62 NSCLC
[14] = system: HOP-92 NSCLC
[15] = system: HS 578T breast
[16] = system: HT29 colon
[17] = system: IGROV1 ovarian
[18] = system: K-562 leukemia
[19] = system: KM12 colon
[20] = system: LOX IMVI melanoma
[21] = system: M14 melanoma
[22] = system: MCF7 breast
[23] = system: MDA-MB-231 breast
[24] = system: MDA-MB-435
[25] = system: MOLT-4 leukemia
[26] = system: NCI-H226 lung
[27] = system: NCI-H23 lung
[28] = system: NCI-H460 lung
[29] = system: NCI-H522 lung
[30] = system: NCI/ADR-RES ovarian
[31] = system: OVCAR-3 ovarian
[32] = system: OVCAR-4 ovarian
[33] = system: OVCAR-5 ovarian
[34] = system: OVCAR-8 ovarian
[35] = system: PC-3 prostate
[36] = system: RPMI-8226 leukemia
[37] = system: RXF 393 renal
[38] = system: SF-268 CNS
[39] = system: SF-295 CNS
[40] = system: SF-539 CNS
[41] = system: SK-MEL-2 melanoma
[42] = system: SK-MEL-28 melanoma
[43] = system: SK-MEL-5 melanoma
[44] = system: SK-OV-3 ovarian
[45] = system: SN12C renal
[46] = system: SNB-19 CNS
[47] = system: SNB-75 CNS
[48] = system: SR leukemia
[49] = system: SW-620 colon
[50] = system: T-47D breast
[51] = system: TK-10 renal
[52] = system: U251 CNS
[53] = system: UACC-257 melanoma
[54] = system: UACC-62 melanoma
[55] = system: UO-31 renal
[56] = system: A498 renal
[57] = system: EKVX NSCLC

Nc1ncnc2c1ncn2C1SC(CO)C(O)C1O (stereo not drawn)
GI50 [1]: 16.5 µM | TGI [1]: 37.3 µM | GI50 [2]: 26.6 µM | TGI [2]: 73.4 µM | GI50 [3]: 31.8 µM | TGI [3]: > 100 µM | GI50 [4]: 12.7 µM | TGI [4]: 43.2 µM | GI50 [5]: 29.5 µM | TGI [5]: > 100 µM | GI50 [6]: > 100 µM | TGI [6]: > 100 µM | GI50 [7]: 33.3 µM | TGI [7]: > 100 µM | GI50 [8]: 6.93 µM | TGI [8]: 26.7 µM | GI50 [9]: 11.9 µM | TGI [9]: 34.5 µM | GI50 [10]: 13.5 µM | TGI [10]: 50.3 µM | GI50 [11]: 3.81 µM | TGI [11]: 31.8 µM | GI50 [12]: 30.3 µM | TGI [12]: 76.2 µM | GI50 [13]: 24.9 µM | TGI [13]: 91.2 µM | GI50 [14]: 13.6 µM | TGI [14]: 52.4 µM | GI50 [15]: 70.5 µM | TGI [15]: > 100 µM | GI50 [16]: 10.7 µM | TGI [16]: 42.4 µM | GI50 [17]: > 100 µM | TGI [17]: > 100 µM | GI50 [18]: 16.9 µM | TGI [18]: > 100 µM | GI50 [19]: 23 µM | TGI [19]: > 100 µM | GI50 [20]: 18.5 µM | TGI [20]: 48.4 µM | GI50 [21]: 21 µM | TGI [21]: 55.6 µM | GI50 [22]: 3.21 µM | TGI [22]: 31.6 µM | GI50 [23]: 10.9 µM | TGI [23]: 34.8 µM | GI50 [24]: 18.1 µM | TGI [24]: 50.2 µM | GI50 [25]: > 100 µM | TGI [25]: > 100 µM | GI50 [26]: 66.5 µM | TGI [26]: > 100 µM | GI50 [27]: 35.1 µM | TGI [27]: > 100 µM | GI50 [28]: 7.88 µM | TGI [28]: 37.9 µM | GI50 [29]: 40 µM | TGI [29]: > 100 µM | GI50 [30]: 13.5 µM | TGI [30]: 52.1 µM | GI50 [31]: 24.5 µM | TGI [31]: 58.3 µM | GI50 [32]: 34.6 µM | TGI [32]: > 100 µM | GI50 [33]: > 100 µM | TGI [33]: > 100 µM | GI50 [34]: 4 µM | TGI [34]: 23.6 µM | GI50 [35]: 3.72 µM | TGI [35]: 33.1 µM | GI50 [36]: 44.1 µM | TGI [36]: > 100 µM | GI50 [37]: 80.6 µM | TGI [37]: > 100 µM | GI50 [38]: 27.1 µM | TGI [38]: 96.6 µM | GI50 [39]: 20.1 µM | TGI [39]: 52.6 µM | GI50 [40]: 19.7 µM | TGI [40]: 50.1 µM | GI50 [41]: 78.8 µM | TGI [41]: > 100 µM | GI50 [42]: 56.5 µM | TGI [42]: > 100 µM | GI50 [43]: 74.4 µM | TGI [43]: > 100 µM | GI50 [44]: 17.3 µM | TGI [44]: 59.6 µM | GI50 [45]: 19.3 µM | TGI [45]: 62.3 µM | GI50 [46]: 26 µM | TGI [46]: 82.8 µM | GI50 [47]: 16.8 µM | TGI [47]: 46.3 µM | GI50 [48]: 12.5 µM | TGI [48]: 45.2 µM | GI50 [49]: 17.5 µM | TGI [49]: 77.2 µM | GI50 [50]: 5.24 µM | TGI [50]: 26 µM | GI50 [51]: 60.9 µM | TGI [51]: > 100 µM | GI50 [52]: 27 µM | TGI [52]: > 100 µM | GI50 [53]: > 100 µM | TGI [53]: > 100 µM | GI50 [54]: > 100 µM | TGI [54]: > 100 µM | GI50 [55]: 18.8 µM | TGI [55]: 41.9 µM

CC1(C)CCC(c2ccc(Cl)cc2)=C(CN2CCN(c3ccc(C(=O)NS(=O)(=O)c4ccc(N[C@H](CCN5CCOCC5)CSc5ccccc5)c(S(=O)(=O)C(F)(F)F)c4)cc3)CC2)C1
GI50 [1]: 1.88 µM | TGI [1]: 3.4 µM | GI50 [56]: 0.0191 µM | TGI [56]: 0.115 µM | GI50 [2]: 1.73 µM | TGI [2]: 3.58 µM | GI50 [3]: 1.72 µM | TGI [3]: 3.14 µM | GI50 [4]: 1.96 µM | TGI [4]: 3.6 µM | GI50 [5]: 1.72 µM | TGI [5]: 4.09 µM | GI50 [6]: 0.0618 µM | TGI [6]: 7.43 µM | GI50 [7]: 1.24 µM | TGI [7]: 2.68 µM | GI50 [8]: 2.76 µM | TGI [8]: 7.12 µM | GI50 [57]: 1.43 µM | TGI [57]: 3.24 µM | GI50 [9]: 0.343 µM | TGI [9]: 1.67 µM | GI50 [10]: 1.69 µM | TGI [10]: 3.11 µM | GI50 [11]: 2.02 µM | TGI [11]: 4.35 µM | GI50 [12]: 0.568 µM | TGI [12]: 3.84 µM | GI50 [13]: 1.73 µM | TGI [13]: 3.26 µM | GI50 [14]: 0.0455 µM | TGI [14]: 0.245 µM | GI50 [15]: 2.66 µM | TGI [15]: > 24.5 µM | GI50 [16]: 1.91 µM | TGI [16]: 3.97 µM | GI50 [17]: 2.37 µM | TGI [17]: 5.25 µM | GI50 [18]: 2.45 µM | TGI [18]: 8.02 µM | GI50 [19]: 1.72 µM | TGI [19]: 3.42 µM | GI50 [20]: 1.4 µM | TGI [20]: 2.74 µM | GI50 [21]: 1.83 µM | TGI [21]: 3.38 µM | GI50 [22]: 2.11 µM | TGI [22]: 5.51 µM | GI50 [23]: 0.642 µM | TGI [23]: 2.17 µM | GI50 [24]: 1.64 µM | TGI [24]: 3.17 µM | GI50 [25]: 0.124 µM | GI50 [26]: 1.62 µM | TGI [26]: 3.13 µM | GI50 [27]: 1.74 µM | TGI [27]: 3.96 µM | GI50 [28]: 1.87 µM | TGI [28]: 3.71 µM | GI50 [29]: 1.89 µM | TGI [29]: 5.03 µM | GI50 [30]: 3.2 µM | TGI [30]: 11.7 µM | GI50 [31]: 1.62 µM | TGI [31]: 3 µM | GI50 [32]: 1.22 µM | TGI [32]: 2.52 µM | GI50 [33]: 1.85 µM | TGI [33]: 4.05 µM | GI50 [34]: 2.19 µM | TGI [34]: 5.18 µM | GI50 [35]: 1.68 µM | TGI [35]: 4.5 µM | GI50 [36]: 0.342 µM | TGI [36]: 4.33 µM | GI50 [37]: 0.322 µM | TGI [37]: 1.94 µM | GI50 [38]: 2.31 µM | TGI [38]: 5.55 µM | GI50 [39]: 1.52 µM | TGI [39]: 3.2 µM | GI50 [40]: 2.08 µM | TGI [40]: 4.22 µM | GI50 [41]: 1.86 µM | TGI [41]: 4.35 µM | GI50 [42]: 1.74 µM | TGI [42]: 3.22 µM | GI50 [43]: 1.57 µM | TGI [43]: 2.93 µM | GI50 [44]: 1.28 µM | TGI [44]: 2.68 µM | GI50 [45]: 1.53 µM | TGI [45]: 3.33 µM | GI50 [46]: 2.68 µM | TGI [46]: 9.14 µM | GI50 [47]: 2.05 µM | TGI [47]: 4.16 µM | GI50 [48]: 2.34 µM | TGI [48]: > 25.9 µM | GI50 [49]: 1.79 µM | TGI [49]: 3.8 µM | GI50 [50]: 2.05 µM | TGI [50]: 5.25 µM | GI50 [51]: 1.28 µM | TGI [51]: 2.67 µM | GI50 [52]: 1.9 µM | TGI [52]: 3.43 µM | GI50 [53]: 1.63 µM | TGI [53]: 3.4 µM | GI50 [54]: 1.43 µM | TGI [54]: 2.92 µM | GI50 [55]: 1.74 µM | TGI [55]: 3.21 µM
